Data published in patent publication US8309598B2, “Cooling compounds” (Givaudan S.A., priority 2007, dated 2012).

Legend:
Format in all cases: in vivo
[1] = Tasting of a dilute solution in de-ionized water against water as control
Protocol: A 0.1% w/w solution of 5-(4H-benzo[d][1,3]oxathiin-2-yl)-2-methoxyphenol was prepared in ethanol and diluted, with good mixing, into de-ionized water: thereby, generating a 1 ppm solution of 5-(4H-benzo[d][1,3]oxathiin-2-yl)-2-methoxyphenol in water. This solution was tasted using de-ionized water as the control.
A 20 ppm solution of 5-(4H-benzo[d][1,3]oxathiin-2-yl)-2,3-dimethoxyphenol (0.1% w/w in EtOH) was prepared in de-ionized water. The resulting solution was evaluated against de-ionized water as the control.
One gram of a 1000 ppm solution of 2-(4-methoxyphenyl)-4H-benzo[d][1,3]oxathiine in EtOH was added to 99 grams of water generating a 10 ppm taste solution. This solution was tasted relative to water.
One gram of a 1000 ppm solution of 4-(4H-benzo[d][1,3]oxathiin-2-yl)phenol in EtOH was added to 99 grams of water generating a 10 ppm taste solution. This solution was tasted relative to water.

[2] = Tasting in sugar/lemon flavor water against control without compound; conditions: 1 gram of 1000 ppm EtOH solution with 5 g sugar, 1 gram 1% lemon flavor, 93 grams water
Protocol: Five grams of sugar, 1 gram of a 1% solution of lemon flavor in EtOH and 1 gram of a 1000 ppm solution of 2-(4-methoxyphenyl)-4H-benzo[d][1,3]oxathiine in EtOH were added to 93 grams water. The resulting solution was tasted relative to a control made up of 5 g sugar, 1 gram lemon flavor and 94 g water.
Five grams of sugar, 1 gram of a 1% solution of lemon flavor in EtOH and 1 gram of a 1000 ppm solution of 4-(4H-benzo[d][1,3]oxathiin-2-yl)phenol in EtOH were added to 93 grams water. The resulting solution was tasted relative to a control made up of 5 g sugar, 1 gram lemon flavor and 94 g water.

[3] = Tasting in pistachio-flavored sweetened milk against control without compound; conditions: 0.8 ppm sample in pistachio-flavored sweetened milk
Protocol: A pistachio-flavored sweetened milk was prepared using 87.52% by weight of 2% reduced fat milk, 10% by weight of granulated fruit sugar, 1.4% w/w of FD&C Blue #1 (0.01% w/w in water), 0.8% w/w of FD&C yellow #5 (0.1% w/w in water). 0.2% w/w of natural pistachio flavor (Givaudan) and 0.08% of a 0.10% w/w solution of 5-(4H-benzo[d][1,3]oxathiin-2-yl)-2-methoxyphenol in ethanol generating a 0.8 ppm sample. The control was prepared the same by increasing the milk to 87.6% and leaving out 5-(4H-benzo[d][1,3]oxathiin-2-yl)-2-methoxyphenol.

[4] = Tasting in cantaloupe-flavored taffy against control without compound; conditions: 0.14% w/w of a 0.1% w/v EtOH solution in cantaloupe-flavored taffy with malic acid
Protocol: A desired quantity of taffy was chipped off using hammer and chisel and melted in the microwave for 5-30 seconds depending on batch size. Next, 1.2% w/w of a cantaloupe flavor (Givaudan) was added to 98.26% w/w sample of the taffy followed by 0.4% w/w of granular malic acid and 0.14% w/w of 5-(4H-benzo[d][1,3]oxathiin-2-yl)-2-methoxyphenol (0.1% w/v in EtOH). The control sample was produced the same by increasing the taffy base to make up for the absence of 5-(4H-benzo[d][1,3]oxathiin-2-yl)-2-methoxyphenol in the formula. In both the control and the experimental sample, the contents were well mixed by hand while wearing gloves. The taffy was shaped into individual portions and covered in an airtight container overnight.

[5] = Tasting in banana-flavored thawed vanilla ice cream against control without compound; conditions: 0.02 g of a 1% EtOH solution with 0.02 g banana flavor in 99.96 g thawed vanilla ice cream
Protocol: Vanilla ice cream was thawed in the microwave for 20 seconds. Next, 0.02 g of N&A banana ice cream flavor and 0.02 g of a 1% solution of 5-(4H-benzo[d][1,3]oxathiin-2-yl)-2-ethoxyphenol in EtOH were added to 99.96 g of the thawed vanilla ice cream. The resulting mixture was mixed well with a spoon and tasted relative to the control, which was made up of 0.02 g of the N&A banana flavor in 99.98 g of the thawed vanilla ice cream.

[6] = Tasting in CoolMint Listerine against CoolMint Listerine as control; conditions: 0.08% w/w of a 1.0% w/w EtOH solution in 99.92% w/w CoolMint Listerine
Protocol: A 0.08% w/w sample of 5-(4H-benzo[d][1,3]oxathiin-2-yl)-2,3-dimethoxyphenol (1.0% w/w in EtOH) was added to 99.92% w/w CoolMint Listerine™ and the contents were mixed well. The resulting mixture was tasted using CoolMint Listerine™ as the control.

[7] = Tasting in sweetened lime-flavored beverage against control without compound; conditions: 0.07% w/w of a 1.0% w/w EtOH solution in lime beverage (10% fruit sugar, citric acid)
Protocol: Granulated fruit sugar, 10% w/w, 0.25% w/W of citric acid, 0.24% w/w of FD&C yellow #5 (0.1% w/w in water), 0.24% of FD&C blue #1 (0.01% w/w in water), 0.1% w/w 15 fold lime oil (1.0% w/w in EtOH), 0.03% w/v of sodium citrate and 0.07% w/w of 5-(4H-benzo[d][1,3]oxathiin-2-yl)-2,3-dimethoxyphenol (1.0% w/w in EtOH) were added to 89.07% w/v of de-ionized water. The control was prepared by eliminating 5-(4H-benzo[d][1,3]oxathiin-2-yl)-2,3-dimethoxyphenol and increasing the water content to 89.14%.

[8] = Tasting in almond-flavored 2% milk against control without compound; conditions: 0.01 g of a 1% EtOH solution with 0.01 g natural almond flavor in 99.98 g of 2% milk
Protocol: Natural almond flavor 0.01 g and 0.01 g of a 1% solution of 4-(4H-benzo[d][1,3]oxathiin-2-yl)benzonitrile in EtOH were added to 99.98 g of 2% milk and the contents were mixed well. This solution was tasted relative to the control, which was made up of 0.01 g of natural almond flavor and 99.99 g of 2% milk.

[9] = 10 ppm taste solution in water, tasted relative to water

SMILES: COc1ccc(C2OCc3ccccc3S2)cc1 (stereo not drawn) [2-(4-methoxyphenyl)-4H-benzo[d][1,3]oxathiine]
- Comments on flavor properties [1, 9]: cooling, slightly anisic, lingering cooling
- Comments on flavor modification [2]: cooling, anise, sweeter, bitter peel, more acidic, tingle, lingering flavor, better aroma and refreshing

SMILES: COc1ccc(C2OCc3ccccc3S2)cc1O (stereo not drawn) [5-(4H-benzo[d][1,3]oxathiin-2-yl)-2-methoxyphenol]
- Comments on flavor modification [3]: enhanced flavor impact, sweeter, cooling, enhanced creaminess, enhanced nutty character, sour aftertaste and brighter
- Comments on flavor properties relative to the control ([1]; 1 ppm solution in water, control de-ionized water): sweet, cooling and lingering
- Comments on flavor modification [4]: sweeter, cooling, enhanced sourness, salivating, aroma enhancement and increased impact

SMILES: CCOc1ccc(C2OCc3ccccc3S2)cc1O (stereo not drawn) [Example 1, 5-(4H-benzo[d][1,3]oxathiin-2-yl)-2-ethoxyphenol]
- Comments on flavor modification [5]: enhances flavor, makes the banana riper, increases creaminess, sweeter and cooling

SMILES: COc1cc(C2OCc3ccccc3S2)cc(O)c1OC (stereo not drawn) [Example 2, 5-(4H-benzo[d][1,3]oxathiin-2-yl)-2,3-dimethoxyphenol]
- Comments on flavor modification [6]: retronasal burn, cooling enhancement, intensifies flavor, increased eucalyptus, slow onset then strong burn, sweet and alcohol enhancement
- Comments on flavor properties ([1]; 20 ppm solution in de-ionized water, control de-ionized water): cooling, sweet, burns tongue, lingering sweetness, bitter and lingering cooling
- Comments on flavor modification [7]: sweet, cooling, astringent, juicy, mouth-watering and tart/bite

SMILES: N#Cc1ccc(C2OCc3ccccc3S2)cc1 (stereo not drawn) [Example 3, 4-(4H-benzo[d][1,3]oxathiin-2-yl)benzonitrile]
- Comments on flavor modification [8]: stronger flavor, more toasted note, earthy note, more authentic, cooling, bitter almond like, sweeter, more nutty and nut skin

SMILES: Oc1ccc(C2OCc3ccccc3S2)cc1 (stereo not drawn) [Example 4, 4-(4H-benzo[d][1,3]oxathiin-2-yl)phenol]
- Comments on flavor properties [1, 9]: slightly sweet and slightly alliaceous
- Comments on flavor modification [2]: cooling, dirty, sweeter, lemon peel, nutty and bitter
